Laboratory results from US8022075B2, “Diagnostic and remedy for disease caused by amyloid aggregation and/or deposition” (Fujifilm Ri Pharma Co., Ltd., priority 2005, dated 2011).

How the values were obtained:
[1] = Distribution in rat body (radioactivity in the brain); assay type: in vivo, Wistar male rats; details: caudal vein
Procedure: Wistar male rats (purchased from Japan SLC, Inc.) were conditioned for seven days, maintaining water and chow (commercial solid chow: F-2, product of Funabashi Farm) ad libitum, and the non-fasting rats were employed in the experiment (8-week-old at experiment).
Each of compound 23, compound 24, and [^125I]-IMPY was dissolved in a solution containing 40 mM ascorbic acid and 0.1% Tween80, to thereby adjust the concentration to 100 μCi/200 μL. Each sample was administered to each rat through the caudal vein under non-anesthetization. […] The brain was cut into the left and right parts, and each part was weighed. The right brain was placed in a vial, and radioactivity was measured by means of a gamma counter. The radioactivity relative to the administration amount was calculated. Specifically, radioactivity of the tissue and that divided by the tissue weight were calculated as % I.D. and % I.D./g-tissue weight, respectively.

[2] = Analysis of radioactive substance in the rat brain after administration (TLC); assay type: in vivo; details: rat brain homogenate 2 to 120 minutes after administration (FIG. 5)
Procedure: Compounds which had been incorporated into the rat brain were investigated. The left part of the rat brain, obtained in the above experiment (distribution in the rat body) was homogenized by means of a Potter-type homogenizer with 40-mmol/L ascorbic acid-containing PBS (4-fold amount by mass). Acetonitrile (4-fold volume with respect to homogenate) was added to the homogenate, and the mixture was filtered, to thereby remove protein. The acetonitrile layer was developed by means of a reverse phase TLC (Whatman KC18F). The TLC was brought into contact with an imaging plate, and radioactivity was detected by means of BAS-1800 (product of Fuji Film Co., Ltd.). Each of the brain homogenate obtained 2, 5, 40, 60, and 120 minutes after administration was treated with acetonitrile so as to remove protein, and extracted radioactive substances were analyzed through thin-layer chromatography (KC18F, Whatman).

[3] = In vitro metabolism rate by use of liver microsomes, mouse; assay type: in vitro ADME, Male CD1 mouse
Procedure: (§1) Liver microsomes (Pooled human Liver Microsomes, Male CD1 mouse, Male Wistar Rat), which is a commercial product of In Vitro Technologies, were employed.
(§2) Each of compound 23, compound 24, and [^125I]-IMPY was dissolved in Milli Q water, to thereby adjust the concentration to 11 μCi/mL (5 nmol/L).
(§3) To a mixture of 100 mM glucose 6-phosphate and […] NADPH solution, an equal volume of […] magnesium chloride was added. Glucose 6-phosphate dehydrogenase was employed at a final concentration of 10 unit/mL. These components were reconstituted upon use.
(§4) Method: To each of the glass test tubes, […] EDTA/0.33M potassium phosphate buffer (150 μL), Milli Q water (200 μL), 0.005 or 0.5 mg protein/mL microsome suspension (50 μL), and a test substance solution (50 μL) were added. The mixture was preliminarily incubated at 37° C. for two minutes. The above-prepared NADPH-generating system (50 μL) was added, to thereby initiate reaction. At an arbitrary point of time, an equal volume of acetonitrile was added, to thereby terminate the reaction. The reaction mixture (50 μL) was sampled into a glass tube for determining the metabolism amount, and saturated ascorbic acid ethanol solution (25 μL) was added thereto. The sample was developed by means of a reverse phase TLC (Whatman KC18F) with 80% methanol. The TLC was brought into contact with an imaging plate, and radioactivity was detected by means of BAS-1800 (product of Fuji Film Co., Ltd.). The metabolism rate was calculated through analysis by means of GraphPad Prism Ver. 4.00 (GraphPad Software, Inc.).

[4] = In vitro metabolism rate by use of liver microsomes, rat; assay type: in vitro ADME, Male Wistar Rat
Procedure: as §1, §2, §3, §4

[5] = In vitro metabolism rate by use of liver microsomes, human; assay type: in vitro ADME
Procedure: as §1, §2, §3, §4

- Radioactivity in the rat brain Mean ± SD ([1]; 2 min after administration): 1.110 ± 0.027 % I.D./g
- Radioactivity in the rat brain Mean ± SD ([1]; 5 min after administration): 0.713 ± 0.098 % I.D./g
- Radioactivity in the rat brain Mean ± SD ([1]; 15 min after administration): 0.337 ± 0.019 % I.D./g
- Radioactivity in the rat brain Mean ± SD ([1]; 30 min after administration): 0.144 ± 0.021 % I.D./g
- Radioactivity in the rat brain Mean ± SD ([1]; 60 min after administration): 0.065 ± 0.002 % I.D./g
- Radioactivity in the rat brain Mean ± SD ([1]; 120 min after administration): 0.027 ± 0.001 % I.D./g
- Rate of metabolism by liver microsomes [3]: 0.911 ± 0.331 pmol/min/mg protein
- Rate of metabolism by liver microsomes [4]: 2.164 ± 0.647 pmol/min/mg protein
- Rate of metabolism by liver microsomes [5]: 0.510 ± 0.137 pmol/min/mg protein
SMILES: CN(C)c1ccc(-c2cn3cc([125I])ccc3n2)cc1 [^125I-IMPY, reference compound]
- Metabolites in the brain (TLC of extracted radioactive substance) [2]: provided a plurality of metabolites in the brain
